The target in experiment [1] is T1, human 5-HT1F receptor (Homo sapiens, UniProt P30939).
T1 construct: expressed in transfected cells; host or cells: NIH/3T3
T1 sequence (P30939 1-366): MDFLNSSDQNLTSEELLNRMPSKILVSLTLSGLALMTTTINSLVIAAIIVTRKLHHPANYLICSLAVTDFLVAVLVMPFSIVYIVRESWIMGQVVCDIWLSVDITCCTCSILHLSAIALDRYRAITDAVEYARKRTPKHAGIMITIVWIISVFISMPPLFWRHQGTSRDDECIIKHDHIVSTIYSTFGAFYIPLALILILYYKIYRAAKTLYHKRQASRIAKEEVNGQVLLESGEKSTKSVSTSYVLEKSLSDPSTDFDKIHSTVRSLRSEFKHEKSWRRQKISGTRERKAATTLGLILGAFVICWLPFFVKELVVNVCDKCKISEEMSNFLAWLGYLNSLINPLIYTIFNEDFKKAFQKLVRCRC
Nature of the experiment: R-SAT assay 5-HT1F. It counts as cell-based. To be noted: Table 3, 5-HT1F; percent response of reference BRL 54443.

For experiment [2], the target named is T2, human 5-HT1A receptor (Homo sapiens, UniProt P08908).
T2 construct: expressed in transfected cells; host or cells: NIH/3T3
T2 sequence (P08908 whole entry): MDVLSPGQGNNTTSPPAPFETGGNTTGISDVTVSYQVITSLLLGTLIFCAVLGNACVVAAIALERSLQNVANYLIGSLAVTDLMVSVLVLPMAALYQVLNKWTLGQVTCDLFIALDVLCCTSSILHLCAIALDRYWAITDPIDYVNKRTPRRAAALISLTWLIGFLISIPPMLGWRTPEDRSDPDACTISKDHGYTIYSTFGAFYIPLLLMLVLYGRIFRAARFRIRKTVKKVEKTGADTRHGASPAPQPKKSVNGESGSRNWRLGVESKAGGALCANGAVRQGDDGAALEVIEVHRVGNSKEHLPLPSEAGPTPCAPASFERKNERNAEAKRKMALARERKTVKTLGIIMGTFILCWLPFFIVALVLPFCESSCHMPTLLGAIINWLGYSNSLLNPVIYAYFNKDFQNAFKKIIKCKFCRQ
Nature of the experiment: R-SAT assay 5-HT1A. It counts as cell-based. To be noted: Table 3, 5-HT1A; percent response of reference 8-OH-DPAT.

The target in experiment [3] is T3, human alpha2C receptor (Homo sapiens, UniProt P18825).
T3 construct: expressed in transfected cells; host or cells: NIH/3T3 cells, transient transfection, pSI vector
T3 sequence (P18825 1-462): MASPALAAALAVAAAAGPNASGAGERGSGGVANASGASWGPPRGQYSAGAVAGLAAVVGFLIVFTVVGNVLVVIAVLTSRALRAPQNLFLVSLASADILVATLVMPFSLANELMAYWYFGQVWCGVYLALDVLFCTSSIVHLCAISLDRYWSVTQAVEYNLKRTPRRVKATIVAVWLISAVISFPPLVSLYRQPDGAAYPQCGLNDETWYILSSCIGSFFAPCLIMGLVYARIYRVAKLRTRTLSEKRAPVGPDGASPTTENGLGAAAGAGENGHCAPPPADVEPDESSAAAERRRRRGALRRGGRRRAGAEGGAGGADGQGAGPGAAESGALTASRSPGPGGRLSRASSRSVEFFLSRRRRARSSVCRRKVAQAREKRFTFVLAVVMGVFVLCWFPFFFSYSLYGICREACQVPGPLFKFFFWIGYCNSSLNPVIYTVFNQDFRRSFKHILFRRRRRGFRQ
Nature of the experiment: R-SAT assay α2C. Type of experiment: cell-based. To be noted: Table 3, α2C; percent response of reference UK 14,306.

Experiment [4] has as its system DOI-induced head twitches in mice. Nature of the experiment: Antagonism of DOI-induced head twitch response in mice. It counts as in vivo. The following applies: DOI 1 mg/kg ip, 75 or 150 μmol/kg ip. The procedure:
The animals used in the head twitch experiments were individually placed in Macrolon type II cages and allowed to habituate to these test cages during 30 minutes before the video registration of behavior began. […] The animals were videotaped for 10 minutes; the behavior was scored during the first 5 minutes. The number of head twitches was counted from the videotapes by a person blind to the treatment.
The purpose of the second experiment was to investigate whether the OSU6162 enantiomers would be able to counteract DOI-induced head twitches. […] The mice were habituated to the test cages during 30 minutes before the video registration of behavior began. All compounds were administered 10 min before the registration of behavior started. DOI was given in dose of 1 mg/kg (ip) throughout. […] In b) the interaction between (+)-OSU6162 (75 or 150 μmol/kg ip) and DOI is shown. In c) the interaction between (−)- or (+)-OSU6162 (75 μmol/kg ip) and DOI is shown.

Experiment [5] has as its target T4, human H1 receptor (Homo sapiens, UniProt P35367).
T4 construct: expressed in transfected cells; host or cells: NIH/3T3
Nature of the experiment: R-SAT assay H1. To be noted: Table 3, H1; percent response of reference Histamine. It counts as cell-based.

Experiment [6] has as its target T5, human M2 receptor (Homo sapiens, UniProt P08172).
T5 construct: expressed in transfected cells; host or cells: NIH/3T3
T5 sequence (P08172 1-466): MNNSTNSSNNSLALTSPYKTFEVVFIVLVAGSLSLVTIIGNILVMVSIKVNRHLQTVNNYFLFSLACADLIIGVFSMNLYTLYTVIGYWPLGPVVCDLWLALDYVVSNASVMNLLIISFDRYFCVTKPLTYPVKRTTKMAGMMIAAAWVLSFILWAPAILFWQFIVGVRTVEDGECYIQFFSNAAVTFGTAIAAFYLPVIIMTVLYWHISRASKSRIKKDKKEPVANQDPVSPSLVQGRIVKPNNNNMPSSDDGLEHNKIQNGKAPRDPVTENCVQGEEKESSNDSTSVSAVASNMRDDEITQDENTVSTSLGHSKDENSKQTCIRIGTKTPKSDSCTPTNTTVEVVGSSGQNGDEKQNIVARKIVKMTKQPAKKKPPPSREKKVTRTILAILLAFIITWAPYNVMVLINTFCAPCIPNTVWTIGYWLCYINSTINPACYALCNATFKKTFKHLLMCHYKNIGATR
Nature of the experiment: R-SAT assay M2. It counts as cell-based. The following applies: Table 3, M2; percent response of reference Carbachol.

The target in experiment [7] is 5-HT2B receptors (Homo sapiens, UniProt P41595). Nature of the experiment: R-SAT assay 5-HT2B. It counts as cell-based. To be noted: Table 3, 5-HT2B; for EC50: negative logarithm of EC50 in molar, read-out: pEC50 (converted); for Eff (%): percent response of reference 5-CT. Set-up: expressed in transfected cells; host or cells: NIH/3T3.
5-HT2B receptors, sequence (P41595 whole entry): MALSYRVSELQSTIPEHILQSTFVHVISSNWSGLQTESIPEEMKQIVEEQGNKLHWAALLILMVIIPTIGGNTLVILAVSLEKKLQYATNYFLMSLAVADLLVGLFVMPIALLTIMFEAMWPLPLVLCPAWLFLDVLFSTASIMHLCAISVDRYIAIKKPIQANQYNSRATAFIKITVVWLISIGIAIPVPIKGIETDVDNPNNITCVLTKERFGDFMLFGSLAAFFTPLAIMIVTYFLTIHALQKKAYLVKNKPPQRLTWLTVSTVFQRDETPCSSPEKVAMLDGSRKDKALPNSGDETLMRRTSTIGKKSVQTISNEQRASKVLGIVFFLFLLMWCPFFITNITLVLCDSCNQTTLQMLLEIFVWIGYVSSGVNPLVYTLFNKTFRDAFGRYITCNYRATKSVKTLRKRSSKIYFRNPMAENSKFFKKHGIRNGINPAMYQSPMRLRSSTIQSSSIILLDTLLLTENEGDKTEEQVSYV
For experiment [8], the target named is T6, human 5-HT1E receptor (Homo sapiens, UniProt P28566).
T6 construct: expressed in transfected cells; host or cells: NIH/3T3
T6 sequence (P28566 whole entry): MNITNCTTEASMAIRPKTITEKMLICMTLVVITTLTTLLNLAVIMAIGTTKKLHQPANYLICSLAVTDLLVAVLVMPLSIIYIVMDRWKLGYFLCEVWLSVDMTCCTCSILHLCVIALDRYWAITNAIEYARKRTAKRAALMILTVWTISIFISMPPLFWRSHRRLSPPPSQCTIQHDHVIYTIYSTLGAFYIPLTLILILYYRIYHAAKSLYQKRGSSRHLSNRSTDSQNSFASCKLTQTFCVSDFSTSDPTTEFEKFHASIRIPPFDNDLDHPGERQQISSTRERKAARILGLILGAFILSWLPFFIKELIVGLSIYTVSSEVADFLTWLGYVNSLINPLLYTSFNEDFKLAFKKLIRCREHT
Nature of the experiment: R-SAT assay 5-HT1E. Type of experiment: cell-based. The following applies: Table 3, 5-HT1E; percent response of reference BRL 54443.

Experiment [9] deals with human 5-HT2A receptors (Homo sapiens, UniProt P28223). Nature of the experiment: Phosphatidyl inositol (PI) hydrolysis assay at 5-HT2A. It counts as cell-based. Set-up: expressed in transfected cells. The following applies: mean ± SEM; for EC50: negative logarithm of EC50 in molar (M), HEK 293T cells, read-out: PI Hydrolysis pEC50 (converted); for PI Hydrolysis Eff (%): percent response of reference ligand 5-HT.
human 5-HT2A receptors, sequence (P28223 whole entry): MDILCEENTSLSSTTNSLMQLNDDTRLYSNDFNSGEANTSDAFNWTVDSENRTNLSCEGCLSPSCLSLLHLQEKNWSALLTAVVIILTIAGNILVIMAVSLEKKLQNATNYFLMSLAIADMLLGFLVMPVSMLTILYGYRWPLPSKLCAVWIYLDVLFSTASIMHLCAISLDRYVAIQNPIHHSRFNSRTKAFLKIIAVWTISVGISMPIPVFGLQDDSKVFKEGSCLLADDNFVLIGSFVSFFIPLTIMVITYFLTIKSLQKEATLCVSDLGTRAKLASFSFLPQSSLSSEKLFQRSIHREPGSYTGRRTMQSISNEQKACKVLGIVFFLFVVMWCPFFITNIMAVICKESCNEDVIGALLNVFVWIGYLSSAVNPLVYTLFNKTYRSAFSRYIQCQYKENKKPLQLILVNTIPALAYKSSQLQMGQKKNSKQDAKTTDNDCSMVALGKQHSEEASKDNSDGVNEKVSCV
Method: After lysing the cells with 50 μl of 0.1M formic acid, 20 μl each cell lysate was mixed with 80 μl (1 mg) RNA Binding YSi-SPA beads (GE Healthcare, Chalfont St. Giles, UK) on PICO plates (PerkinElmer) and counted on a TopCount (Packard).
Each curve is representative of at least three or more independent experiments.

T4 sequence (P35367 whole entry): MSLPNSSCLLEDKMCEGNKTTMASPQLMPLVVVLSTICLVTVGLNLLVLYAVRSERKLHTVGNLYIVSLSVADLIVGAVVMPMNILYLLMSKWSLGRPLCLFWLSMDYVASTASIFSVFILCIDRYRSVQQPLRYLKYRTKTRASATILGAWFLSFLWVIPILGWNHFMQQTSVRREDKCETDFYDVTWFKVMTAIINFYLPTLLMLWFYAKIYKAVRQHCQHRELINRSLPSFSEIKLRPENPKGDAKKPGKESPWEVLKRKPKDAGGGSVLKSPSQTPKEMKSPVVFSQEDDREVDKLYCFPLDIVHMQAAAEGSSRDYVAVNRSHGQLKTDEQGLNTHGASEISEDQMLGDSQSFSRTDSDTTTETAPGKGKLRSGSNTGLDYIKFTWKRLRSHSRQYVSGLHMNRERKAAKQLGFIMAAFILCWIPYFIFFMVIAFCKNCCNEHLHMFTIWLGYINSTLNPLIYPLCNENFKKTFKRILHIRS

In the case of `CCCN1CCC[C@H](c2cccc(S(C)(=O)=O)c2)C1` [(+)-OSU6162, (3R)-3-[3-(methylsulfonyl)phenyl]-1-propylpiperidine], the “Eff (%)” value in experiment [1] worked out at 22%; in experiment [2] it was 24%; in experiment [3], 13%; in experiment [5] it was 3%; in experiment [6], 22%; in [7], 111%. In addition, the “Eff (%)” value in experiment [8] is recorded as 5%. Also, in experiment [4], the “antagonism of DOI-induced head twitches” value is given as “neither 75 nor 150 μmol/kg of (+)-OSU6162 significantly antagonized DOI-induced head twitches”. In addition, the EC50 in experiment [7] was 5010 nM; in experiment [9], 2e-06 M. The “PI Hydrolysis Eff (%)” value in [9] amounted to 82 ± 4%.

For the molecule `CCCN1CCC[C@@H](c2cccc(S(C)(=O)=O)c2)C1` [(−)-OSU6162, (3S)-3-[3-(methylsulfonyl)phenyl]-1-propylpiperidine], the “Eff (%)” value in experiment [1] amounted to 30%; in [2] it was 14%; in experiment [3], 6%; in [5] it was 2%; in experiment [6], 9%; in experiment [7], 75%. Besides, in [8], the “Eff (%)” value amounted to 5%. Further, in experiment [4], the “antagonism of DOI-induced head twitches” value is reported as “significantly antagonized DOI-induced head twitches”. In addition, the EC50 in experiment [7] is 631 nM; in [9] it was 1.26e-06 M. In experiment [9], the “PI Hydrolysis Eff (%)” value was 65 ± 4%.

These data come from patent publication US20130197032A1, “[…] COMPOUNDS FOR THE TREATMENT OF NEUROLOGICAL AND […] DISORDERS” (A. CARLSSON RESEARCH AB, priority 2010, published 2013).
